# Tests used:
# [1] = system: A31A7 macrophages and BMDMs; test: Macrophage M1/M2 marker gene expression by qRT-PCR; type: cell-based, mouse
# Experimental: Bone marrow-derived macrophages were isolated from the femurs and tibias of wild-type C57/Bl6, HDAC6 knockout (C57BL/6J-Hdac6em2Lutzy/J, 029318, Jackson Laboratory), or UBC-GFP (C57BL/6-Tg(UBC-GFP)30Scha/J, 004353, Jackson Laboratory). Isolated bone marrow cells were cultured in RPMI 1640 complete medium with 10% FBS, 1% NEAA, and 1% penicillin-streptomycin in 5% CO2 at 37° C. Medium was supplemented with murine recombinant M-CSF (20 ng/mL, 576404, Biolegend) to differentiate monocytes into macrophages. Three days after bone marrow isolation, undifferentiated and floating cells were washed with PBS and replaced with fresh RPMI media. […]
# (§1) Macrophages were polarized to M1-like phenotype using 50 ng/mL of interferon gamma (IFNγ, 575306, Biolegend) and 100 ng/mL of bacterial lipopolysaccharide (LPS, L2880, Sigma Aldrich, St. Louis, MO) for 24 hours. To polarize macrophages towards the M2-like phenotype, macrophages were stimulated with 20 ng/mL of IL-4 (214-14, PeproTech) and 20 ng/mL of IL-13 (575904, Biolegend). THP1 monocytes were treated with 5 ng/mL of phorbol 12-myristate 13-acetate (PMA) to induce differentiation into macrophages. Once converted to macrophages, media was replaced to remove PMA prior to treatment and/or polarization. Polarization towards M1 and M2 phenotypes was performed with respective recombinant human cytokines from PeproTech: 50 ng/mL of IFNγ (300-02), 20 ng/mL IL-4 (200-04), and 20 ng/mL IL-13 (200-13). 100 ng/mL LPS was also used to polarize toward the M1 phenotype. 3. In vivo Studies.
# (§2) qRT-PCR: Total RNA was extracted from cells using the Trizol reagent according to manufacturer's instructions (ThermoFisher Scientific, 15596018). Samples were then processed immediately or stored at −80° C. RNA was quantified using a NanoDrop One Spectrophotometer (ThermoFisher Scientific). The 260/280 ratios were routinely over 1.8. Sample cDNA was produced using the iScript cDNA synthesis kit (Bio-Rad, 1708891). Target mRNA was quantified using MyIQ single-color real-time PCR detection system from Bio-Rad (Bio-Rad, Hercules, CA) and iQ SYBR green Supermix (Bio-Rad, 1708882). The following primers were synthesized by Invitrogen (Waltham, MA) with sequences designed by Origene (Rockville, MD): mouse R-actin (MP200232), mouse Nos2 (MP208933), mouse MRC1 (MP207800), human R-actin (HP204660), human IL-1β (HP200544), human MRC1 (HP206121), human NOS2 (HP200591), human CD209 (HP214086), mouse SIRPα (MP215450), mouse LRP1 (MP207604), human LRP1 (HP206040), mouse MFGE8 (MP208190), human MFGE8 (HP225757), mouse CD36 (MP201923), human CD36 (HP200058), and mouse CD47 (MP201932). Primers for mouse ARG-1 (PPM31770C) and human SIRPα (QT01031051) were purchased from Qiagen (Hilden, Germany). Human CD47 primer sequences were obtained from Sudo T, et al and are 5′-[…]-3′ (sense) (SEQ ID NO:01) and 5′-[…]-3′ (antisense) (SEQ ID NO:02) (Sudo T, et al. (2017) Oncol. Lett. 14:801-809). Human CD86 primer sequences are 5′-[…]-3′ (sense) (SEQ ID NO:03) and 5′-[…]-3′ (antisense) (SEQ ID NO:04). Mouse CD80 sequences are 5′-[…]-3′ (sense) (SEQ ID NO:05) and 5′-[…]-3′ (antisense) (SEQ ID NO:06). Cycling conditions were set as per manufacturer's instructions. Single product amplification was confirmed by melting curve analysis. Quantification is expressed in arbitrary units and target mRNA levels were normalized to R-actin expression.
# [2] = system: THP1-derived macrophages; test: M1/M2 marker gene expression in THP1-derived macrophages by qRT-PCR; type: cell-based, human
# Experimental: as §1
# as §2, with “expression. […]” for “expression.”
# [3] = system: human THP1-derived macrophages; test: Pro-phagocytic signal gene expression in THP1-derived macrophages; type: cell-based; details: human THP1-derived macrophages
# Experimental: as §1
# qRT-PCR: Total RNA was extracted from cells using the Trizol reagent according to manufacturer's instructions (ThermoFisher Scientific, 15596018). Samples were then processed immediately or stored at −80° C. RNA was quantified using a NanoDrop One Spectrophotometer (ThermoFisher Scientific). The 260/280 ratios were routinely over 1.8. Sample cDNA was produced using the iScript cDNA synthesis kit (Bio-Rad, 1708891). Target mRNA was quantified using MyIQ single-color real-time PCR detection system from Bio-Rad (Bio-Rad, Hercules, CA) and iQ SYBR green Supermix (Bio-Rad, 1708882). The following primers were synthesized by Invitrogen (Waltham, MA) with sequences designed by Origene (Rockville, MD): mouse R-actin (MP200232), mouse Nos2 (MP208933), mouse MRC1 (MP207800), human R-actin (HP204660), human IL-1β (HP200544), human MRC1 (HP206121), human NOS2 (HP200591), human CD209 (HP214086), mouse SIRPα (MP215450), mouse LRP1 (MP207604), human LRP1 (HP206040), mouse MFGE8 (MP208190), human MFGE8 (HP225757), mouse CD36 (MP201923), human CD36 (HP200058), and mouse CD47 (MP201932). […] Quantification is expressed in arbitrary units and target mRNA levels were normalized to R-actin expression.
# [4] = system: WM1361A melanoma cells; test: CD47 gene expression upon IFNγ in WM1361A cells; type: cell-based, human; details: NextA 2.5 μM, 5 μM, and 10 μM, 12 hr post-stimulation (FIG. 3K)
# Experimental: qRT-PCR: Total RNA was extracted from cells using the Trizol reagent according to manufacturer's instructions (ThermoFisher Scientific, 15596018). Samples were then processed immediately or stored at −80° C. RNA was quantified using a NanoDrop One Spectrophotometer (ThermoFisher Scientific). The 260/280 ratios were routinely over 1.8. Sample cDNA was produced using the iScript cDNA synthesis kit (Bio-Rad, 1708891). Target mRNA was quantified using MyIQ single-color real-time PCR detection system from Bio-Rad (Bio-Rad, Hercules, CA) and iQ SYBR green Supermix (Bio-Rad, 1708882). […] Quantification is expressed in arbitrary units and target mRNA levels were normalized to R-actin expression.
# This phenomenon was further examined in human melanoma cell lines to test the translational application of the results obtained using mouse models. […] Furthermore, the effects of HDAC6 KD on IFNγ-driven CD47 upregulation was analyzed. […] The effects of pharmacological inhibition of HDAC6 in other human melanoma cell lines (WM1361A and WM793) were also assessed. […]
# [5] = system: WM164 melanoma cells; test: Flow cytometry-based phagocytosis assay, THP1-derived macrophages with WM164 cells; type: cell-based, human; details: co-culture with WM164 melanoma cells (FIG. 4J)
# [6] = system: SIRPα; test: SIRPα expression on NK cells; type: cell-based
smiles,measurement,setting,value
"CCCCN(Cc1ccc(C(=O)NO)cc1)C(=O)Nc1ccccc1 [NextA, Nexturastat A]",phenotypic changes in both macrophage polarizations,"[1]; A31A7, 5 μM of NextA",elicited observable phenotypic changes
same,expression of Cd80 in M1 polarized macrophages,"[1]; A31A7, different concentrations of NextA, qRT-PCR (FIG. 7B)",concentration-dependent effect
same,expression of Arg1 in M2 polarized macrophages,"[1]; A31A7, different concentrations of NextA, qRT-PCR (FIG. 7C)",concentration-dependent effect
same,Nos2 and Cd80 at the transcriptional level,"[1]; A31A7 and BMDMs polarized to M1 or M1(IFNγ), 5 μM (FIG. 1A)",tended to significantly upregulate
same,expression of M2-associated markers Arg1 and Mrc1,"[1]; A31A7 cells and BMDMs, M2, qRT-PCR, 5 μM (FIG. 1C)",significantly downregulated
same,"M1-associated markers NOS2, CD86, and IL1B","[2]; THP1-derived M1 macrophages, 5 μM NextA (FIG. 1H)",either unaffected or significantly upregulated
same,expression of M2-associated markers CD206 and CD209 at the transcriptional level,"[2]; THP1-derived M2 macrophages, 5 μM NextA (FIG. 1I)",significantly downregulated
same,"expression of Lrp1, Cd36, and Mfge8",[3],significant increase
same,IFNγ-driven CD47 upregulation,[4],prevented
same,phagocytosis by unpolarized THP-1 derived macrophages,[5],significantly more phagocytic
same,SIRPα expression on NK cells,[6],downregulated

# — patent US20230391868A1, “COMPOSITIONS FOR AND METHODS OF TREATING CANCER” (The George Washington University, priority 2022, published 2023)
